Earlier results as cited in patent US20040132663A1 (University of Utah Research Foundation, priority 2000, published 2004).

Conditions: in vivo

Substance: contulakin-G
- potency in inhibiting pain relative to neurotensin: significantly more potent than neurotensin
